Reference: US9975870B2, “5,6-dimethoxy-1,1-dioxobenzo[b]thiophene-2-methyloxycarbonyl (DM-Bsmoc) and related amino-protecting groups” (MASSACHUSETTS, UNIVERSITY OF, priority 2013, dated 2018)

Assay: Deblocking of substituted Bsmoc p-chloroaniline (R-Bsmoc-PCA) urethanes with piperidine, 1H-NMR monitoring
Format: physicochemical
Conditions: for t1/2 2 eq piperidine in CDCl3 (approximate half time for the reaction of R-Bsmoc-PCA urethane and piperidine): 2 eq piperidine in CDCl3, 1H-NMR analysis, approximate values
From the text: As an electron-withdrawing substituent the MeSO2 group also enhances the stability of the benzo[b]thiophene-2-methyl system toward acidic reagents and in addition enhances the speed of the deblocking step. […] Tables 1A and 1B show the approximate half times for the reaction of substituted Bsmoc p-chloroaniline derivatives with 2 eq of piperidine in CDCl3 according to ^1H-NMR analysis.
Tables 1A and 1B. Approximate half times for the reaction of R-Bsmoc-PCA urethane and piperidine

| t1/2 2 eq piperidine in CDCl3 (approximate half time for the reaction of R-Bsmoc-PCA urethane and piperidine) | speed of deblocking relative to the unsubstituted analog (Bsmoc-NHC6H4-Cl-p) (treatment with piperidine in CDCl3, NMR monitoring) | SMILES |
| --- | --- | --- |
| 360 min |  | CC1=C(COC(=O)Nc2ccc(Cl)cc2)S(=O)(=O)c2ccccc21 [3-Me-Bsmoc-PCA] |
| 150 min |  | Cc1cccc2c1C=C(COC(=O)Nc1ccc(Cl)cc1)S2(=O)=O [4-Me-Bsmoc-PCA] |
| 3 to 4 min |  | COc1cc2c(cc1OC)S(=O)(=O)C(COC(=O)Nc1ccc(Cl)cc1)=C2 [5,6-MeO-Bsmoc-PCA] |
| 3 min |  | CC(=O)Nc1ccc2c(c1)C=C(COC(=O)Nc1ccc(Cl)cc1)S2(=O)=O [5-Ac—NH-Bsmoc-PCA] |
| 2 min |  | O=C(Nc1ccc(Cl)cc1)OCC1=Cc2cc(Cl)ccc2S1(=O)=O [5-Cl-Bsmoc-PCA] |
| 6 to 7 min |  | Cc1ccc2c(c1)C=C(COC(=O)Nc1ccc(Cl)cc1)S2(=O)=O [5-Me-Bsmoc-PCA] |
| <1 min | about six times more readily | CS(=O)(=O)c1ccc2c(c1)C=C(COC(=O)Nc1ccc(Cl)cc1)S2(=O)=O [5-MeSO2-Bsmoc-PCA] |
| <1 min |  | O=C(Nc1ccc(Cl)cc1)OCC1=Cc2cc([N+](=O)[O-])ccc2S1(=O)=O [5-NO2-Bsmoc-PCA] |
| 2 min |  | O=C(Nc1ccc(Cl)cc1)OCC1=Cc2ccc(Cl)cc2S1(=O)=O [6-Cl-Bsmoc-PCA] |
| <1 min |  | CS(=O)(=O)c1ccc2c(c1)S(=O)(=O)C(COC(=O)Nc1ccc(Cl)cc1)=C2 [6-MeSO2-Bsmoc-PCA] |
| 6 to 7 min |  | O=C(Nc1ccc(Cl)cc1)OCC1=Cc2ccccc2S1(=O)=O [Bsmoc-PCA, reference compound] |
